The nature of data set [1]: Colistin concentration in plasma after CMS nebulization. Conditions: human, inhaled or intranasal, 20 patients. It is filed as in vivo. How it is done:
Patients were treated with CMS (Xellia Pharmaceuticals ApS, Copenhagen, Denmark) at a total of 3.75 MIU (equivalent to 300 mg of CMS or 112.5 mg of CBA) administered four times a day at 6 h intervals. CMS was dissolved in 5 mL of normal saline and administered over 30 min through a jet nebulizer (Sileo 54, Macjin Medical, Seoul, Republic of Korea) connected to the ventilator circuit. Bronchoalveolar lavage fluid (BALF) was obtained by instilling 20 mL of normal saline into the right middle lobe or left lingular segmental bronchus using a bronchoscope, followed by immediate aspiration and collection into a syringe. Samples were collected immediately before the nebulization treatment and at 1, 3, and 5 h after the start of the treatment. Blood samples were collected before the nebulization treatment and at 1, 2, 3, and 5 h thereafter. Both BALF and blood samples were centrifuged at 3000× g for 10 min within 1 h of collection and the supernatant was isolated. Samples were then stored in a refrigerator at a temperature below −70 °C.
A validated liquid chromatography–tandem mass spectrometry assay was used to determine colistin concentrations in BALF and plasma samples. The HPLC equipment consisted of an Agilent 1200 series modular system and an Atlantis C18 column (Company, Waters, Milford, MA, USA) (2.1 mm × 150 mm, 3.0 μm). Mobile phases A and B were water and acetonitrile, respectively. Both phases contained 0.1% formic acid. A gradient elution program was started at 10% B, increased to 35% for 1 min, maintained at this composition for 3.8 min, and returned to the initial composition for 5 min to re-equilibrate the column. Mass spectrometry (MS) was performed using a triple-quadruple mass spectrometer (SCIEX QTRAP5500, Applied Biosystems, Foster City, CA, USA) with an electrospray ionization (ESI) interface. The ESI source was set to positive ionization mode. The parent to product transition (m/z) was 578.483→101.071 for colistin A, 585.453→101.071 for colistin B, and 602.527→101.000 for polymyxin B. Data acquisition and processing were performed using the Analyst software (version 1.7.1; Applied Biosystems, Foster City, CA, USA). Stock solutions of colistin and IS were prepared in deionized water at concentrations of 10 mg/mL, and both were stored at −20 °C. Working solutions of colistin were prepared in deionized water (dilutions of 2, 5, 10, 50, 100, 500, and 1000 μg/mL). Calibration standards were prepared by spiking 247.5 μL of drug-free plasma with 2.5 μL of colistin working solution. Low (colistin A; 11.16 ng/mL, colistin B; 48.84 ng/mL), moderate (colistin A; 186 ng/mL, colistin B; 814 ng/mL), and high (colistin A; 1488 ng/mL, colistin B; 6512 ng/mL) concentrations of QC samples were prepared. Sample pretreatment involved a solid phase extraction. A 250 μL aliquot of plasma was pipetted into a 1.5 mL Eppendorf tube, to which 10 μL of IS (10 μg/mL, polymyxin B) and 740 μL of deionized water were added. This mixture was loaded into a cartridge that had been preconditioned twice with 1 mL of methanol and 1 mL of deionized water. After the plasma mixture was loaded, the cartridge was washed with 1 mL of deionized water. One milliliter of methanol including 0.1% formic acid was used for extraction. Extraction liquid was evaporated by vacuum concentrator (Speedvac, Thermo Fisher Scientific Inc., Waltham, MA, USA) at 45 °C for 2.5 h. Samples were reconstituted in 100 μL deionized water containing 0.1% formic acid. […]

For another data set, the system named is A. baumannii. As to conditions: murine thigh infection model; cited from earlier work.

Positions of bridges follow the written chain, without caps; N, C: chain ends. Non-standard residues stand in square brackets, D forms with d. Residues, ends and D or L forms follow the SMILES beside them. *: point of attachment. X1 = CC[C@H](C)CCCCC(=O)*; Dab = NCC[C@H](N)C(=O)O

For `CC[C@H](C)CCCCC(=O)N[C@@H](CCN)C(=O)N[C@H](C(=O)N[C@@H](CCN)C(=O)N[C@H]1CCNC(=O)[C@H]([C@@H](C)O)NC(=O)[C@H](CCN)NC(=O)[C@H](CCN)NC(=O)[C@H](CC(C)C)NC(=O)[C@@H](CC(C)C)NC(=O)[C@H](CCN)NC1=O)[C@@H](C)O` [colistin] (X1-[Dab]T[Dab][Dab][Dab][dL]L[Dab][Dab]T; lactam 4-C), the level at 1 h in data set [1] (1 h after start (time by position in Figure 1c), CMS 0.9375 MIU nebulized over 30 min, LC-MS/MS, read-out: Median colistin concentration in plasma) came to 19.2 ng/mL. For the same compound, the level at 2 h in data set [1] (2 h after start (time by position in Figure 1c), CMS 0.9375 MIU nebulized over 30 min, LC-MS/MS, read-out: Median colistin concentration in plasma) is 29.8 ng/mL. In addition, the level at 3 h in data set [1] (3 h after start (time by position in Figure 1c), CMS 0.9375 MIU nebulized over 30 min, LC-MS/MS, read-out: Median colistin concentration in plasma) was 37.7 ng/mL. The level at 5 h in data set [1] (5 h after start (time by position in Figure 1c), CMS 0.9375 MIU nebulized over 30 min, LC-MS/MS, read-out: Median colistin concentration in plasma) turned out to be 32.6 ng/mL. In addition, in data set [1] (nebulized CMS 0.9375 MIU over 30 min, monitored over 5 h, read-out: Observed peak colistin concentration in plasma, median (IQR)), the Cmax worked out at 43.5 ng/mL. The “fAUC/MIC target values for a 2 log10 kill” value with A. baumannii is listed as 17.5–43.0 mg/L·h.

These data come from paper PMC10967270, “Intrapulmonary and Systemic Pharmacokinetics of Colistin Following Nebulization of Low-Dose Colistimethate Sodium in Patients with Ventilator-Associated Pneumonia Caused by Carbapenem-Resistant Acinetobacter baumannii” (Antibiotics, 2024).
